Results from ChEMBL document CHEMBL1201862, “PubChem BioAssay data set” (2004).
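96-well plates; 48 h exposure; 5 concentrations. Endpoints by linear interpolation between flanking doses. Not reached: highest tested concentration assigned. Abbreviation: GI50, concentration required for 50% inhibition of growth.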 Calls of active or inactive are those of the source. Cut-off read from the data, not from the text of the source: active = GI50 up to about 1.1 µM and inactive = higher.

Legend:
Assay in all cases: NCI-60 cell line screen, 48 h
RPMI-8226 = tested on: RPMI-8226
KM12 = tested on: KM12
OVCAR-5 = tested on: OVCAR-5
NCI/ADR-RES = tested on: NCI/ADR-RES
RXF 393 = tested on: RXF 393
EKVX = tested on: EKVX
IGROV-1 = tested on: IGROV-1
T47D = tested on: T47D
SF-268 = tested on: SF-268
U-251 = tested on: U-251
MDA-MB-435 = tested on: MDA-MB-435
NCI-H23 = tested on: NCI-H23
CAKI-1 = tested on: CAKI-1
A549 = tested on: A549
HOP-62 = tested on: HOP-62
BT-549 = tested on: BT-549
SNB-19 = tested on: SNB-19
OVCAR-3 = tested on: OVCAR-3
HL-60 = tested on: HL-60

Compound: O=c1[nH]c(=O)n(C2OC(CO)C(O)C2O)c2ncc(-c3ccc(-c4ccccc4)cc3)nc12 (stereo not given)
- GI50 (RPMI-8226): > 20 µM (inactive)
- GI50 (KM12): > 20 µM (inactive)
- GI50 (OVCAR-5): > 20 µM (inactive)
- GI50 (NCI/ADR-RES): > 20 µM (inactive)
- GI50 (RXF 393): > 20 µM (inactive)
- GI50 (EKVX): > 20 µM (inactive)
- GI50 (IGROV-1): > 20 µM (inactive)
- GI50 (T47D): > 20 µM (inactive)
- GI50 (SF-268): > 20 µM (inactive)
- GI50 (U-251): > 20 µM (inactive)
- GI50 (MDA-MB-435): > 20 µM (inactive)
- GI50 (NCI-H23): > 20 µM (inactive)
- GI50 (CAKI-1): > 20 µM (inactive)
- GI50 (A549): > 20 µM (inactive)
- GI50 (HOP-62): > 20 µM (inactive)
- GI50 (BT-549): > 20 µM (inactive)
- GI50 (SNB-19): > 20 µM (inactive)

Compound: CCc1n[nH]c(=O)n1CCCCCCCCCCCCn1c(CC)n[nH]c1=O
- GI50 (RPMI-8226): 18.6 µM (inactive)
- GI50 (KM12): 33.6 µM (inactive)
- GI50 (OVCAR-5): 47.1 µM (inactive)
- GI50 (NCI/ADR-RES): 28.6 µM (inactive)
- GI50 (RXF 393): 37 µM (inactive)
- GI50 (EKVX): 32 µM (inactive)
- GI50 (IGROV-1): 29.5 µM (inactive)
- GI50 (T47D): 18 µM (inactive)
- GI50 (SF-268): 29.7 µM (inactive)
- GI50 (U-251): 22 µM (inactive)
- GI50 (MDA-MB-435): 23.1 µM (inactive)
- GI50 (NCI-H23): 20.2 µM (inactive)
- GI50 (CAKI-1): 27.7 µM (inactive)
- GI50 (OVCAR-3): 37.8 µM (inactive)
- GI50 (A549): 27.9 µM (inactive)
- GI50 (HOP-62): 56.6 µM (inactive)
- GI50 (BT-549): 26.8 µM (inactive)
- GI50 (SNB-19): 39.7 µM (inactive)

Compound: COc1cccc2c1C(=O)c1c(O)c3c(c(O)c1C2=O)C[C@H](O)C[C@@H]3OC1CC(N)C(O)C(C)O1 (stereo not given in full)
- GI50 (RPMI-8226): 1.22 µM (inactive)
- GI50 (KM12): 0.811 µM (active)
- GI50 (OVCAR-5): 1.97 µM (inactive)
- GI50 (NCI/ADR-RES): 13.4 µM (inactive)
- GI50 (RXF 393): 6.58 µM (inactive)
- GI50 (EKVX): 5.21 µM (inactive)
- GI50 (IGROV-1): 1.57 µM (inactive)
- GI50 (T47D): 1.21 µM (inactive)
- GI50 (SF-268): 1.57 µM (inactive)
- GI50 (MDA-MB-435): 1.82 µM (inactive)
- GI50 (NCI-H23): 1.06 µM (active)
- GI50 (CAKI-1): 1.08 µM (active)
- GI50 (OVCAR-3): 1.85 µM (inactive)
- GI50 (A549): 1.98 µM (inactive)
- GI50 (HOP-62): 1.49 µM (inactive)
- GI50 (BT-549): 3.04 µM (inactive)
- GI50 (SNB-19): 3.36 µM (inactive)

Compound: CCCSc1ccc2[nH]c(/N=C/c3ccccc3)cc2c1
- GI50 (RPMI-8226): 14.8 µM (inactive)
- GI50 (OVCAR-5): 40.1 µM (inactive)
- GI50 (NCI/ADR-RES): 21.9 µM (inactive)
- GI50 (RXF 393): 16.4 µM (inactive)
- GI50 (EKVX): 26.9 µM (inactive)
- GI50 (IGROV-1): 31.8 µM (inactive)
- GI50 (T47D): 48 µM (inactive)
- GI50 (SF-268): 19.7 µM (inactive)
- GI50 (MDA-MB-435): 5.75 µM (inactive)
- GI50 (NCI-H23): 41.7 µM (inactive)
- GI50 (CAKI-1): 19.4 µM (inactive)
- GI50 (OVCAR-3): 22.1 µM (inactive)
- GI50 (BT-549): 33.7 µM (inactive)

Compound: CC1OC(OC2C(O)COC(OC3C(C)OC(OC4C(OC(=O)[C@]56CCC(C)(C)C[C@@H]5C5=CCC7[C@@]8(C)C[C@H](O)[C@H](OC9OC(CO)C(O)C(OC%10OC(CO)C(O)C(O)C%10O)C9O)[C@@](C)(CO)[C@@H]8CC[C@@]7(C)[C@]5(C)CC6)OCC(O)C4O)C(O)C3OC3OCC(O)(CO)C3O)C2O)C(O)C(O)C1O (stereo not given in full)
- GI50 (RPMI-8226): 13.6 µM (inactive)
- GI50 (KM12): 9.48 µM (inactive)
- GI50 (OVCAR-5): 9.02 µM (inactive)
- GI50 (NCI/ADR-RES): 7.35 µM (inactive)
- GI50 (RXF 393): 7.67 µM (inactive)
- GI50 (EKVX): 5.83 µM (inactive)
- GI50 (T47D): 6.92 µM (inactive)
- GI50 (SF-268): 10 µM (inactive)
- GI50 (U-251): 10.4 µM (inactive)
- GI50 (MDA-MB-435): 11.5 µM (inactive)
- GI50 (NCI-H23): 5.87 µM (inactive)
- GI50 (CAKI-1): 3.98 µM (inactive)
- GI50 (OVCAR-3): 9.64 µM (inactive)
- GI50 (A549): 6.61 µM (inactive)
- GI50 (HOP-62): 9.95 µM (inactive)
- GI50 (BT-549): 5.19 µM (inactive)
- GI50 (SNB-19): 8.89 µM (inactive)

Compound: CC1(C)CCC2(C(=O)OC3OC(CO)C(O)C(O)C3O)CCC3(C)C(=CCC4C5(C)CCC(OC6OC(CO)C(O)C(O)C6O)C(C)(C)C5CCC43C)C2C1 (stereo not given)
- GI50 (RPMI-8226): 4.18 µM (inactive)
- GI50 (KM12): 6.5 µM (inactive)
- GI50 (OVCAR-5): 24.1 µM (inactive)
- GI50 (RXF 393): > 25 µM (inactive)
- GI50 (EKVX): > 25 µM (inactive)
- GI50 (IGROV-1): 14.1 µM (inactive)
- GI50 (T47D): 6.4 µM (inactive)
- GI50 (SF-268): 6.93 µM (inactive)
- GI50 (U-251): 4.49 µM (inactive)
- GI50 (MDA-MB-435): 7.16 µM (inactive)
- GI50 (NCI-H23): 11.9 µM (inactive)
- GI50 (CAKI-1): > 25 µM (inactive)
- GI50 (OVCAR-3): > 25 µM (inactive)
- GI50 (A549): > 25 µM (inactive)
- GI50 (HL-60): 4.41 µM (inactive)
- GI50 (HOP-62): > 25 µM (inactive)
- GI50 (BT-549): 9.44 µM (inactive)
- GI50 (SNB-19): 8.32 µM (inactive)
